Test results taken from PMC7791078 (Molecular Therapy, 2020).

Legend:
human NIS (hNIS) = target: T1, human NIS (hNIS) (Homo sapiens, UniProt Q92911); assay: inhibition of […]mTcO4 uptake in transduced HeLa cells; type: cell-based
T1 sequence (Q92911 1-643): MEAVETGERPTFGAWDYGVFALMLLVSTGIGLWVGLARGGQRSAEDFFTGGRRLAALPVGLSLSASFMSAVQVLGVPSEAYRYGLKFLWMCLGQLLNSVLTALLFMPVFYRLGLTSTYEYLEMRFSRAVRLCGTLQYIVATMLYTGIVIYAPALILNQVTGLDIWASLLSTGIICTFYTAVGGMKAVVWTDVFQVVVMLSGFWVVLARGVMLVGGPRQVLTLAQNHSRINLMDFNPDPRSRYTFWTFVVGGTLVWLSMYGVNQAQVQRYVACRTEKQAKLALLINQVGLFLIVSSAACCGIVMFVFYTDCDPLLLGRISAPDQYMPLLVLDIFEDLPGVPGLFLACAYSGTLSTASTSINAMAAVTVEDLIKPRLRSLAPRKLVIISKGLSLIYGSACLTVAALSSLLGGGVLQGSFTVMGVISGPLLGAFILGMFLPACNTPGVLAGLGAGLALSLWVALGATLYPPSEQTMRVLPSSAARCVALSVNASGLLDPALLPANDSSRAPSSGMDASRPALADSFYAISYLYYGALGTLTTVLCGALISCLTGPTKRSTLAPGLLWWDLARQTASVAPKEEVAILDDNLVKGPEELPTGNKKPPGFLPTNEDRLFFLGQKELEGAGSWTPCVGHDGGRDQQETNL

minke whale NIS (wNIS) = target: T2, minke whale NIS (wNIS) (Balaenoptera acutorostrata, UniProt A0A384B8D1); assay: as above; type: cell-based
T2 sequence (A0A384B8D1 1-642): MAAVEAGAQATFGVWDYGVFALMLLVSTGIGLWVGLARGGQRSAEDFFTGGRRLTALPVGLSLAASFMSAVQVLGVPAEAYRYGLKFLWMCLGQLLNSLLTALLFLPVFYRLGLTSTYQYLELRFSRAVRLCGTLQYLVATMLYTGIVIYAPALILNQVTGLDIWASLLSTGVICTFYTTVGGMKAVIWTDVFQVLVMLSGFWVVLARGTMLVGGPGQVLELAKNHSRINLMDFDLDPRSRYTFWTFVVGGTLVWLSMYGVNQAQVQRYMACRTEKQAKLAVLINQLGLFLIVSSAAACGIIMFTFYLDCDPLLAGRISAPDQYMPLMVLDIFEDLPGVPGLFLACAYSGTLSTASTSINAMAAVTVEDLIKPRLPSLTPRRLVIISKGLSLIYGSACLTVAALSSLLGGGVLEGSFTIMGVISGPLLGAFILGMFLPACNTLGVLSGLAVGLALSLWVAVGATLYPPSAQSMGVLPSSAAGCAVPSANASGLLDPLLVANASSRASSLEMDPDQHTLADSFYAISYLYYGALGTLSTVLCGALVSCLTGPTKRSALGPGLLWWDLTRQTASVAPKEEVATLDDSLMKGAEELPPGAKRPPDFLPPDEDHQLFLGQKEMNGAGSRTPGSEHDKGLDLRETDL

Structure (SMILES): [O-][Cl+3]([O-])([O-])O [perchlorate]
- IC50 (human NIS (hNIS)): 195 nM
- IC50 (minke whale NIS (wNIS)): 2860 nM
